{"source": "patent US6559140B2", "about": "(Abbott Laboratories, priority 2000, dated 2003)", "biological_target": "H3 receptor (Rattus norvegicus, UniProt Q9QYN8)", "sequence (Q9QYN8 1-397 isoform Q9QYN8-3)": "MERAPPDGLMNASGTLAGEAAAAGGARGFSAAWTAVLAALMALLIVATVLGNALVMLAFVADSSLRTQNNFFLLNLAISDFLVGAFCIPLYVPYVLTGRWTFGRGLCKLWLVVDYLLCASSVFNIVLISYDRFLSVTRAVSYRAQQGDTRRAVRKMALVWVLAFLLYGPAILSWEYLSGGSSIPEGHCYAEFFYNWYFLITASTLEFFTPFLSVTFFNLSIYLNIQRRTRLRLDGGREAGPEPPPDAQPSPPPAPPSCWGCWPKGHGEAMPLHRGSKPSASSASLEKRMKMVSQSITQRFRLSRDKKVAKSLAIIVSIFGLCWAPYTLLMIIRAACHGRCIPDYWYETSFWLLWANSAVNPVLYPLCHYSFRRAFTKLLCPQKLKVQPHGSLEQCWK", "experiment": "H3 receptor binding, (3H)-N-α-methylhistamine displacement in rat cortical membranes", "conditions": "male Sprague-Dawley rat brain cortical membranes, 30 minutes at 25° C., Cheng-Prusoff, geometric mean values of 2-10 separate experiments", "procedure": "Briefly, male Sprague-Dawley rat brain cortices were homogenized (1 g tissue/10 mL buffer) in 50 mM Tris-HCl/5 mM EDTA containing protease inhibitor cocktail (Calbiochem) using a polytron set at 20,500 rpm. Homogenates were centrifuged for 20 minutes at 40,000×g. The supernatant was decanted, and pellets were weighed. The pellet was resuspended by polytron homogenization in 40 mL 50 mM Tris-HCl/5 mM EDTA with protease inhibitors and centrifuged for 20 minutes at 40,000×g. […] Test compounds were added to the incubation mixtures prior to initiating the incubation assay by addition of the membranes. Thioperamide (3 μM) was used to determine nonspecific binding. Binding incubations were conducted for 30 minutes at 25° C. and terminated by addition of 2 mL of ice cold 50 mM Tris-HCl (H 7.7) and filtration through 0.3% polyethylenimine-soaked Unifilter plates (Packard). These filters were washed 4 additional times with 2 mL of ice-cold 50 mM Tris-HCl and dried for 1 hour. Radioactivity was determined using liquid scintillation counting techniques. Results were analyzed by Hill transformation and Ki values were determined using the Cheng-Prusoff equation.", "data": [{"smiles": "C[C@H](N)C(=O)N1CCN(CCCOc2ccc(C(=O)C3CC3)cc2)CC1", "note": "[Example 1, (4-(3-(4-((2S)-2-aminopropanoyl)-1-piperazinyl)propoxy)phenyl)(cyclopropyl)methanone]", "values": [{"measurement": "Ki", "result": 19.6, "unit": "nM"}]}, {"smiles": "CCCCCC(=O)c1ccc(OCCCN2CCN(C(=O)[C@H](N)CO)CC2)cc1", "note": "[Example 52, 1-(4-(3-(4-((2R)-2-amino-3-hydroxypropanoyl)-1-piperazinyl)propoxy)phenyl)-1-hexanone]", "values": [{"measurement": "Ki", "result": 8.39, "unit": "nM"}]}, {"smiles": "C[C@H](CCOc1ccc(C(=O)C2CC2)cc1)N1CCN(C(=O)[C@@H](C)NC(=O)OC(C)(C)C)CC1", "note": "[Example 61, Tert-butyl (1R)-2-(4-((1R)-3-(4-(cyclopropylcarbonyl)phenoxy)-1-methylpropyl)-1-piperazinyl)-1-methyl-2-oxoethylcarbamate]", "values": [{"measurement": "Ki", "result": 0.74, "unit": "nM"}]}, {"smiles": "C[C@H](CCOc1ccc(C(=O)C2CC2)cc1)N1CCN(C(=O)[C@@H](C)N)CC1", "note": "[Example 62, (4-(((3R)-3-(4-((2R)-2-aminopropanoyl)-1-piperazinyl)butyl)oxy)phenyl)(cyclopropyl)methanone]", "values": [{"measurement": "Ki", "result": 1.46, "unit": "nM"}]}, {"smiles": "C[C@@H](NC(=O)OC(C)(C)C)C(=O)N1CCN(CCCOc2ccc(C(=O)C3CC3)cc2)CC1", "note": "[Example 64, Tert-butyl (1R)-2-(4-(3-(4-(cyclopropylcarbonyl)phenoxy)propyl)-1-piperazinyl)-1-methyl-2-oxoethylcarbamate]", "values": [{"measurement": "Ki", "result": 2.07, "unit": "nM"}]}, {"smiles": "CC(C)(C)[C@@H](N)C(=O)N1CCN(CCCOc2ccc(C(=O)C3CC3)cc2)CC1", "note": "[Example 66, (4-(3-(4-((2R)-2-amino-3,3-dimethylbutanoyl)-1-piperazinyl)propoxy)phenyl)(cyclopropyl)methanone]", "values": [{"measurement": "Ki", "result": 12.1, "unit": "nM"}]}, {"smiles": "CC[C@@H](N)C(=O)N1CCN(CCCOc2ccc(C(=O)C3CC3)cc2)CC1", "note": "[Example 69, (4-(3-(4-((2R)-2-aminobutanoyl)-1-piperazinyl)propoxy)phenyl)(cyclopropyl)methanone]", "values": [{"measurement": "Ki", "result": 1.24, "unit": "nM"}]}, {"smiles": "N[C@H](COCc1ccccc1)C(=O)N1CCN(CCCOc2ccc(C(=O)C3CC3)cc2)CC1", "note": "[Example 75, (4-(3-(4-((2R)-2-amino-3-(benzyloxy)propanoyl)-1-piperazinyl)propoxy)phenyl)(cyclopropyl)methanone]", "values": [{"measurement": "Ki", "result": 4.67, "unit": "nM"}]}, {"smiles": "O=C(c1ccc(OCCCN2CCN(C(=O)C[C@H]3CCCN3)CC2)cc1)C1CC1", "note": "[Example 86, Cyclopropyl(4-(3-(4-((2R)-pyrrolidinylacetyl)-1-piperazinyl)propoxy)phenyl)methanone]", "values": [{"measurement": "Ki", "result": 4.64, "unit": "nM"}]}, {"smiles": "Cn1cnc(C[C@@H](N)C(=O)N2CCN(CCCOc3ccc(C(=O)C4CC4)cc3)CC2)c1", "note": "[Example 88, (4-(3-(4-((2R)-2-amino-3-(1-methyl-1H-imidazol-4-yl)propanoyl)-1-piperazinyl)propoxy)phenyl)(cyclopropyl)methanone]", "values": [{"measurement": "Ki", "result": 6.56, "unit": "nM"}]}, {"smiles": "C[C@@H](N)C(=O)N1CCN(CCCOc2ccc(-c3ccc(C#N)cc3)cc2)CC1", "note": "[Example 100]", "values": [{"measurement": "Ki", "result": 12.4, "unit": "nM"}]}, {"smiles": "C[C@H](N)C(=O)N1CCCN(CCCOc2ccc(C(=O)C3CC3)cc2)CC1", "note": "[Example 117, (4-(3-(4-((2S)-2-aminopropanoyl)-1,4-diazepan-1-yl)propoxy)phenyl)(cyclopropyl)methanone]", "values": [{"measurement": "Ki", "result": 1.07, "unit": "nM"}]}, {"smiles": "O=C(c1ccc(OCCCN2CCCN(C(=O)C[C@@H]3CCCN3)CC2)cc1)C1CC1", "note": "[Example 124, Cyclopropyl(4-(3-(4-((2S)-pyrrolidinylacetyl)-1,4-diazepan-1-yl)propoxy)phenyl)methanone]", "values": [{"measurement": "Ki", "result": 4.03, "unit": "nM"}]}, {"smiles": "C[C@@H](NC(=O)c1ccco1)C(=O)N1CCN(CCCOc2ccc(C(=O)C3CC3)cc2)CC1", "note": "[Example 126, N-((1R)-2-(4-(3-(4-(cyclopropylcarbonyl)phenoxy)propyl)-1-piperazinyl)-1-methyl-2-oxoethyl)-2-furamide]", "values": [{"measurement": "Ki", "result": 0.742, "unit": "nM"}]}, {"smiles": "C[C@@H](NC(=O)[C@H]1CCCN1)C(=O)N1CCN(CCCOc2ccc(C(=O)C3CC3)cc2)CC1", "note": "[Example 129, (2R)-N-((1R)-2-(4-(3-(4-(cyclopropylcarbonyl)phenoxy)propyl)-1-piperazinyl)-1-methyl-2-oxoethyl)-2-pyrrolidinecarboxamide]", "values": [{"measurement": "Ki", "result": 0.425, "unit": "nM"}]}, {"smiles": "N#Cc1ccc(-c2ccc(OCCCN3CCCN(C(=O)[C@@H](Cc4cscn4)NC(=O)c4ccco4)CC3)cc2)cc1", "note": "[Example 137, N-((1R)-2-(4-(3-((4′-cyano(1,1′-biphenyl)-4-yl)oxy)propyl)-1,4-diazepan-1-yl)-2-oxo-1-(1,3-thiazol-4-ylmethyl)ethyl)-2-furamide]", "values": [{"measurement": "Ki", "result": 0.208, "unit": "nM"}]}, {"smiles": "C[C@@H](N)C(=O)N1CCN(CCCOc2ccc(C(=O)C3CC3)cc2)CC1", "note": "[Example 138, (4-(3-(4-((2R)-2-aminopropanoyl)-1-piperazinyl)propoxy)phenyl)(cyclopropyl)methanone]", "values": [{"measurement": "Ki", "result": 0.996, "unit": "nM"}]}, {"smiles": "CC(C)N[C@H](C)C(=O)N1CCN(CCCOc2ccc(C(=O)C3CC3)cc2)CC1", "note": "[Example 139, Cyclopropyl(4-(3-(4-((2R)-2-(isopropylamino)propanoyl)-1-piperazinyl)propoxy)phenyl)methanone]", "values": [{"measurement": "Ki", "result": 7.29, "unit": "nM"}]}, {"smiles": "N#Cc1ccc(-c2ccc(OCCN3CCN(C(=O)[C@@H]4CCCN4)CC3)cc2)cc1", "note": "[Example 140, 4′-(2-(4-((2S)-pyrrolidinylcarbonyl)-1-piperazinyl)ethoxy)(1,1′-biphenyl)-4-carbonitrile]", "values": [{"measurement": "Ki", "result": 818, "unit": "nM"}]}, {"smiles": "CCCc1nc(-c2ccc(OCCCN3CCCN(C(=O)[C@@H](C)NC(=O)c4ccco4)CC3)cc2F)no1", "note": "[Example 141, N-[(1R)-2-(4-{3-[3-fluoro-4-(5-propyl-1,2,4-oxadiazol-3-yl)phenoxy]propyl}-1,4-diazepan-1-yl)-1-methyl-2-oxoethyl]-2-furamide]", "values": [{"measurement": "Ki", "result": 2.34, "unit": "nM"}]}, {"smiles": "CC(C)CCc1nc(-c2ccc(OCCCN3CCCN(C(=O)[C@@H](C)NC(=O)c4ccco4)CC3)cc2F)no1", "note": "[Example 142, N-[(1R)-2-(4-{3-[3-fluoro-4-(5-isopentyl-1,2,4-oxadiazol-3-yl)phenoxy]propyl}-1,4-diazepan-1-yl)-1-methyl-2-oxoethyl]-2-furamide]", "values": [{"measurement": "Ki", "result": 0.72, "unit": "nM"}]}, {"smiles": "CC(C)OCc1nc(-c2ccc(OCCCN3CCCN(C(=O)[C@@H](C)NC(=O)c4ccco4)CC3)cc2F)no1", "note": "[Example 143, N-{(1R)-2-[4-(3-{3-fluoro-4-[5-(isopropoxymethyl)-1,2,4-oxadiazol-3-yl]phenoxy}propyl)-1,4-diazepan-1-yl]-1-methyl-2-oxoethyl}-2-furamide]", "values": [{"measurement": "Ki", "result": 4, "unit": "nM"}]}, {"smiles": "C[C@@H](NC(=O)c1ccco1)C(=O)N1CCCN(CCCOc2ccc(-c3noc(C4CCCC4)n3)c(F)c2)CC1", "note": "[Example 144, N-[(1R)-2-(4-{3-[4-(5-cyclopentyl-1,2,4-oxadiazol-3-yl)-3-fluorophenoxy]propyl}-1,4-diazepan-1-yl)-1-methyl-2-oxoethyl]-2-furamide]", "values": [{"measurement": "Ki", "result": 1.36, "unit": "nM"}]}, {"smiles": "C[C@H](NC(=O)OC(C)(C)C)c1nc(-c2ccc(OCCCN3CCCN(C(=O)[C@@H](C)NC(=O)c4ccco4)CC3)cc2F)no1", "note": "[Example 146, Tert-butyl (1S)-1-{3-[2-fluoro-4-(3-{4-[(2R)-2-(2-furoylamino)propanoyl]-1,4-diazepan-1-yl}propoxy)phenyl]-1,2,4-oxadiazol-5-yl}ethylcarbamate]", "values": [{"measurement": "Ki", "result": 9.03, "unit": "nM"}]}, {"smiles": "C[C@@H](NC(=O)c1ccco1)C(=O)N1CCCN(CCCOc2ccc(-c3noc(-c4ccoc4)n3)c(F)c2)CC1", "note": "[Example 147, N-{(1R)-2-[4-(3-{3-fluoro-4-[5-(3-furyl)-1,2,4-oxadiazol-3-yl]phenoxy}propyl)-1,4-diazepan-1-yl]-1-methyl-2-oxoethyl}-2-furamide]", "values": [{"measurement": "Ki", "result": 1.68, "unit": "nM"}]}]}
